Legend:
[1] = target: Corticotropin-releasing factor receptor 2 (Mus musculus) (UniProt Q60748); assay: In vitro agonistic activity against mouse corticotropin releasing factor 2 receptor; type: functional
[2] = target: T1, Corticotropin-releasing factor receptor 1 (Mus musculus) (UniProt P35347); assay: In vitro agonistic activity against mouse corticotropin releasing factor 1 receptor; type: functional
T1 sequence (whole entry): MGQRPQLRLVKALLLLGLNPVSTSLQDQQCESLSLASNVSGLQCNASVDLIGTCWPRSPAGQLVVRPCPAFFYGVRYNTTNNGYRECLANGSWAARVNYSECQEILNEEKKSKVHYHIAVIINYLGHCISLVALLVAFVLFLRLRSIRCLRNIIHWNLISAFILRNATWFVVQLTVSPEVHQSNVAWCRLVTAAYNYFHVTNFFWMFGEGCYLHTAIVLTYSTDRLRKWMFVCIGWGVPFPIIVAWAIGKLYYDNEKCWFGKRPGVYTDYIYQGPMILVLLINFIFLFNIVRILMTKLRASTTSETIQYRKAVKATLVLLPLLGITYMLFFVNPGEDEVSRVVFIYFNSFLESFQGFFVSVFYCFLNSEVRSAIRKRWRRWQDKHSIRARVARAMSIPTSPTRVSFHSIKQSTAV

[3] = target: Corticotropin-releasing factor receptor 2 (Mus musculus, UniProt Q60748); assay: In vitro effective concentration for mouse corticotropin releasing factor 2 receptor
Corticotropin-releasing factor receptor 2, sequence (Q60748 whole entry): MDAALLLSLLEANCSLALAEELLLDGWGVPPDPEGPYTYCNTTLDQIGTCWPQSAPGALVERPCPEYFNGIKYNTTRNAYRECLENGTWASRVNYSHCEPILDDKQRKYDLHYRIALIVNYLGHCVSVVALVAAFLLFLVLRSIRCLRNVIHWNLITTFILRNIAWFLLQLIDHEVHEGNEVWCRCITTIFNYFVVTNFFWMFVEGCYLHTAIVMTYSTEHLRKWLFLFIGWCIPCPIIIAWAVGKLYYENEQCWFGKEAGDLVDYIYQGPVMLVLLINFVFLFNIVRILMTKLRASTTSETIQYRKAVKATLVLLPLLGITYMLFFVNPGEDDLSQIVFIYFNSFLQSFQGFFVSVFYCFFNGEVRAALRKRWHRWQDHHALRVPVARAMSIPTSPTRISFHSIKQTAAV

[4] = target: T2, Corticotropin-releasing factor receptor 1 (Mus musculus, UniProt P35347); assay: In vitro effective concentration for mouse corticotropin releasing factor 1 receptor
T2 sequence (P35347 whole entry): T1 sequence (whole entry)

Mus musculus = organism: Mus musculus; assay: Selectivity ratio of EC50s for mouse corticotropin releasing factor receptors 1 and 2

Corticotropin-releasing factor receptor 2 (Mus musculus), sequence (Q60748 whole entry): as above

Emax [1] [%] | Emax [2] [%] | EC50 [3] [nM] | EC50 [4] [nM] | Selectivity (Mus musculus) | Compound
88 | 93 | 10 | 103 | 10 | CC[C@H](C)[C@H](NC(=O)[C@@H](NC(=O)[C@H](CC(=O)O)NC(=O)[C@H](CC(C)C)NC(=O)[C@H](CC(C)C)NC(=O)[C@H](CC(C)C)NC(=O)[C@H](CCCN=C(N)N)NC(=O)[C@H](CC(N)=O)NC(=O)[C@H](CC(N)=O)NC(=O)[C@H](C)NC(=O)[C@H](C)NC(=O)[C@H](CCC(N)=O)NC(=O)[C@H](CCC(N)=O)NC(=O)[C@H](CCCCN)NC(=O)[C@H](CCC(=O)O)NC(=O)[C@H](CCCCN)NC(=O)[C@H](CCC(=O)O)NC(=O)[C@H](CCC(N)=O)NC(=O)[C@H](CCCCN)NC(=O)[C@H](CCC(=O)O)NC(=O)[C@@H](NC(=O)[C@H](CCC(=O)O)NC(=O)[C@@H](NC(=O)[C@H](CCSC)NC(=O)[C@H](CCCCN)NC(=O)[C@H](CCCN=C(N)N)NC(=O)[C@H](CC(C)C)NC(=O)[C@H](CC(C)C)NC(=O)[C@H](Cc1ccccc1)NC(=O)[C@H](CC(C)C)NC(=O)[C@@H]1CCCN1C(=O)[C@H](CC(C)C)NC(=O)[C@H](CC(=O)O)NC(=O)[C@@H](NC(=O)[C@H](CO)NC(=O)[C@@H](NC(=O)[C@@H]1CCCN1C(=O)[C@@H]1CCCN1C(=O)CNC(=O)[C@@H]1CCC(=O)N1)[C@@H](C)CC)[C@@H](C)CC)[C@@H](C)CC)[C@@H](C)CC)[C@@H](C)O)C(=O)O
92 | 81 | 3 | 48.1 | 16 | CC[C@H](C)[C@H](NC(=O)[C@@H](NC(=O)[C@H](CC(=O)O)NC(=O)[C@H](CC(C)C)NC(=O)[C@H](CC(C)C)NC(=O)[C@H](CC(C)C)NC(=O)[C@H](CCCN=C(N)N)NC(=O)[C@H](CC(N)=O)NC(=O)[C@H](CC(N)=O)NC(=O)[C@H](C)NC(=O)[C@H](C)NC(=O)[C@H](CCC(N)=O)NC(=O)[C@H](CCC(N)=O)NC(=O)[C@H](CCCCN)NC(=O)[C@H](CCC(=O)O)NC(=O)[C@H](CCCCN)NC(=O)[C@H](CCC(=O)O)NC(=O)[C@H](CCC(N)=O)NC(=O)[C@H](CCCCN)NC(=O)[C@H](CCC(=O)O)NC(=O)[C@@H](NC(=O)[C@H](CCC(=O)O)NC(=O)[C@@H](NC(=O)[C@H](CCSC)NC(=O)[C@H](CCCCN)NC(=O)[C@H](CCCN=C(N)N)NC(=O)[C@H](CC(C)C)NC(=O)[C@H](CC(C)C)NC(=O)[C@H](Cc1ccccc1)NC(=O)[C@H](Cc1ccccc1)NC(=O)[C@@H]1CCCN1C(=O)[C@H](CC(C)C)NC(=O)[C@H](CC(=O)O)NC(=O)[C@@H](NC(=O)[C@H](CO)NC(=O)[C@@H](NC(=O)[C@@H]1CCCN1C(=O)[C@@H]1CCCN1C(=O)CNC(=O)[C@@H]1CCC(=O)N1)[C@@H](C)CC)[C@@H](C)CC)[C@@H](C)CC)[C@@H](C)CC)[C@@H](C)O)C(=O)O
93 | 100 | 21.6 | 220 | 10 | CC[C@H](C)[C@H](NC(=O)[C@@H](NC(=O)[C@H](CC(=O)O)NC(=O)[C@H](CC(C)C)NC(=O)[C@H](CC(C)C)NC(=O)[C@H](CC(C)C)NC(=O)[C@H](CCCN=C(N)N)NC(=O)[C@H](CC(N)=O)NC(=O)[C@H](CC(N)=O)NC(=O)[C@H](C)NC(=O)[C@H](C)NC(=O)[C@H](CCC(N)=O)NC(=O)[C@H](CCC(N)=O)NC(=O)[C@H](CCCCN)NC(=O)[C@H](CCC(=O)O)NC(=O)[C@H](CCCCN)NC(=O)[C@H](CCC(=O)O)NC(=O)[C@H](CCC(N)=O)NC(=O)[C@H](CCCCN)NC(=O)[C@H](CCC(=O)O)NC(=O)[C@@H](NC(=O)[C@H](CCC(=O)O)NC(=O)[C@@H](NC(=O)[C@H](CCSC)NC(=O)[C@H](CCCCN)NC(=O)[C@H](CCCN=C(N)N)NC(=O)[C@H](CC(C)C)NC(=O)[C@H](CC(C)C)NC(=O)[C@H](Cc1ccc(O)cc1)NC(=O)[C@H](CC(N)=O)NC(=O)[C@@H]1CCCN1C(=O)[C@H](CC(C)C)NC(=O)[C@H](CC(=O)O)NC(=O)[C@@H](NC(=O)[C@H](CO)NC(=O)[C@@H](NC(=O)[C@@H]1CCCN1C(=O)[C@@H]1CCCN1C(=O)CNC(=O)[C@@H]1CCC(=O)N1)[C@@H](C)CC)[C@@H](C)CC)[C@@H](C)CC)[C@@H](C)CC)[C@@H](C)O)C(=O)O
100 | 100 | 21.3 | 445 | 21 | CC[C@H](C)[C@H](NC(=O)[C@@H](NC(=O)[C@H](CC(=O)O)NC(=O)[C@H](CC(C)C)NC(=O)[C@H](CC(C)C)NC(=O)[C@H](CC(C)C)NC(=O)[C@H](CCCN=C(N)N)NC(=O)[C@H](CC(N)=O)NC(=O)[C@H](CC(N)=O)NC(=O)[C@H](C)NC(=O)[C@H](C)NC(=O)[C@H](CCC(N)=O)NC(=O)[C@H](CCC(N)=O)NC(=O)[C@H](CCCCN)NC(=O)[C@H](CCC(=O)O)NC(=O)[C@H](CCCCN)NC(=O)[C@H](CCC(=O)O)NC(=O)[C@H](CCC(N)=O)NC(=O)[C@H](CCCCN)NC(=O)[C@H](CCC(=O)O)NC(=O)[C@@H](NC(=O)[C@H](CCC(=O)O)NC(=O)[C@@H](NC(=O)[C@H](CCSC)NC(=O)[C@H](CCCCN)NC(=O)[C@H](CCCN=C(N)N)NC(=O)[C@H](CC(C)C)NC(=O)[C@H](CC(C)C)NC(=O)[C@H](CCC(N)=O)NC(=O)[C@H](Cc1c[nH]cn1)NC(=O)[C@@H]1CCCN1C(=O)[C@H](CC(C)C)NC(=O)[C@H](CC(=O)O)NC(=O)[C@@H](NC(=O)[C@H](CO)NC(=O)[C@@H](NC(=O)[C@@H]1CCCN1C(=O)[C@@H]1CCCN1C(=O)CNC(=O)[C@@H]1CCC(=O)N1)[C@@H](C)CC)[C@@H](C)CC)[C@@H](C)CC)[C@@H](C)CC)[C@@H](C)O)C(=O)O
73 | 4 | 14.8 | > 1000 | > 68 | CC[C@H](C)[C@H](NC(=O)[C@@H](NC(=O)[C@H](CC(=O)O)NC(=O)[C@H](CC(C)C)NC(=O)[C@H](CC(C)C)NC(=O)[C@H](CC(C)C)NC(=O)[C@H](CCCN=C(N)N)NC(=O)[C@H](CC(N)=O)NC(=O)[C@H](CC(N)=O)NC(=O)[C@H](C)NC(=O)[C@H](C)NC(=O)[C@H](CCC(N)=O)NC(=O)[C@H](CCC(N)=O)NC(=O)[C@H](CCCCN)NC(=O)[C@H](CCC(=O)O)NC(=O)[C@H](CCCCN)NC(=O)[C@H](CCC(=O)O)NC(=O)[C@H](CCC(N)=O)NC(=O)[C@H](CCCCN)NC(=O)[C@H](CCC(=O)O)NC(=O)[C@@H](NC(=O)[C@H](CCC(=O)O)NC(=O)[C@@H](NC(=O)[C@H](CCSC)NC(=O)[C@H](CCCCN)NC(=O)[C@H](CCCN=C(N)N)NC(=O)[C@H](CC(C)C)NC(=O)[C@H](CC(C)C)NC(=O)[C@@H](NC(=O)[C@@H](NC(=O)[C@@H]1CCCN1C(=O)[C@H](CC(C)C)NC(=O)[C@H](CC(=O)O)NC(=O)[C@@H](NC(=O)[C@H](CO)NC(=O)[C@@H](NC(=O)[C@@H]1CCCN1C(=O)[C@@H]1CCCN1C(=O)CNC(=O)[C@@H]1CCC(=O)N1)[C@@H](C)CC)[C@@H](C)CC)[C@@H](C)CC)[C@@H](C)CC)[C@@H](C)CC)[C@@H](C)CC)[C@@H](C)O)C(=O)O
94 | 99 | 23.4 | 562 | 24 | CC[C@H](C)[C@H](NC(=O)[C@@H](NC(=O)[C@H](CC(=O)O)NC(=O)[C@H](CC(C)C)NC(=O)[C@H](CC(C)C)NC(=O)[C@H](CC(C)C)NC(=O)[C@H](CCCN=C(N)N)NC(=O)[C@H](CC(N)=O)NC(=O)[C@H](CC(N)=O)NC(=O)[C@H](C)NC(=O)[C@H](C)NC(=O)[C@H](CCC(N)=O)NC(=O)[C@H](CCC(N)=O)NC(=O)[C@H](CCCCN)NC(=O)[C@H](CCC(=O)O)NC(=O)[C@H](CCCCN)NC(=O)[C@H](CCC(=O)O)NC(=O)[C@H](CCC(N)=O)NC(=O)[C@H](CCCCN)NC(=O)[C@H](CCC(=O)O)NC(=O)[C@@H](NC(=O)[C@H](CCC(=O)O)NC(=O)[C@@H](NC(=O)[C@H](CCSC)NC(=O)[C@H](CCCCN)NC(=O)[C@H](CCCN=C(N)N)NC(=O)[C@H](CC(C)C)NC(=O)[C@H](CC(C)C)NC(=O)[C@H](Cc1c[nH]c2ccccc12)NC(=O)[C@@H](NC(=O)[C@@H]1CCCN1C(=O)[C@H](CC(C)C)NC(=O)[C@H](CC(=O)O)NC(=O)[C@@H](NC(=O)[C@H](CO)NC(=O)[C@@H](NC(=O)[C@@H]1CCCN1C(=O)[C@@H]1CCCN1C(=O)CNC(=O)[C@@H]1CCC(=O)N1)[C@@H](C)CC)[C@@H](C)CC)[C@@H](C)CC)[C@@H](C)CC)[C@@H](C)CC)[C@@H](C)O)C(=O)O
98 | 95 | 20.2 | 606 | 30 | CC[C@H](C)[C@H](NC(=O)[C@@H](NC(=O)[C@H](CC(=O)O)NC(=O)[C@H](CC(C)C)NC(=O)[C@H](CC(C)C)NC(=O)[C@H](CC(C)C)NC(=O)[C@H](CCCN=C(N)N)NC(=O)[C@H](CC(N)=O)NC(=O)[C@H](CC(N)=O)NC(=O)[C@H](C)NC(=O)[C@H](C)NC(=O)[C@H](CCC(N)=O)NC(=O)[C@H](CCC(N)=O)NC(=O)[C@H](CCCCN)NC(=O)[C@H](CCC(=O)O)NC(=O)[C@H](CCCCN)NC(=O)[C@H](CCC(=O)O)NC(=O)[C@H](CCC(N)=O)NC(=O)[C@H](CCCCN)NC(=O)[C@H](CCC(=O)O)NC(=O)[C@@H](NC(=O)[C@H](CCC(=O)O)NC(=O)[C@@H](NC(=O)[C@H](CCSC)NC(=O)[C@H](CCCCN)NC(=O)[C@H](CCCN=C(N)N)NC(=O)[C@H](CC(C)C)NC(=O)[C@H](CC(C)C)NC(=O)[C@H](Cc1ccc(O)cc1)NC(=O)[C@H](C)NC(=O)[C@@H]1CCCN1C(=O)[C@H](CC(C)C)NC(=O)[C@H](CC(=O)O)NC(=O)[C@@H](NC(=O)[C@H](CO)NC(=O)[C@@H](NC(=O)[C@@H]1CCCN1C(=O)[C@@H]1CCCN1C(=O)CNC(=O)[C@@H]1CCC(=O)N1)[C@@H](C)CC)[C@@H](C)CC)[C@@H](C)CC)[C@@H](C)CC)[C@@H](C)O)C(=O)O

Source: ChEMBL document CHEMBL1139487, “Discovery of corticotropin releasing factor 2 receptor selective sauvagine analogues for treatment of skeletal muscle atrophy” (J Med Chem, 2005)
